How the values were obtained:
Assay type in all cases: in vivo
Amaranthus retroflexus [1] = assay: post-emergence herbicidal action; settings: three-leaf stage, 320 g a.i./ha, scored after approx. 3 to 4 weeks
Description: (§1) Seeds of mono- and dicotyledonous harmful plants are placed in sandy loam in cardboard pots, covered with soil and grown in the greenhouse under good growth conditions. 2 to 3 weeks after sowing, the test plants are treated in the three-leaf stage. The compounds according to the invention, which are formulated as wettable powders or as emulsion concentrates, are sprayed at a dosage rate stated in table B2 to the surface of the green plant parts at an application rate of 600 to 800 l of water per ha (converted). After the test plants have been left to stand in the greenhouse for approx. 3 to 4 weeks under optimal growth conditions, the effect of the compounds is scored by comparison with compounds of the prior art.

Sinapis arvensis [2] = assay: post-emergence herbicidal action; settings: three-leaf stage, 320 g a.i./ha, scored after approx. 3 to 4 weeks
Description: as §1

Stellaria media [3] = assay: post-emergence herbicidal action; settings: three-leaf stage, 320 g a.i./ha, scored after approx. 3 to 4 weeks
Description: as §1

Cyperus serotinus = assay: post-emergence action against harmful plants
Description: as §1
(§2) In further greenhouse experiments, seeds of barley and of monocotyledonous and dicotyledonous harmful plants are placed in sandy loam, covered with soil and placed in the greenhouse until the plants have developed two to three true leaves. Then, they are treated with the compounds of the formula (I) according to the invention as described above under item 2.

Monochoria vaginalis = assay: post-emergence action against harmful plants
Description: as §1, §2

Sagittaria pygmaea = assay: post-emergence action against harmful plants
Description: as §1, §2

Amaranthus retroflexus [4] = assay: pre-emergence herbicidal action; settings: 320 g a.i./ha, scored visually after 3 to 4 weeks vs untreated controls
Source text: (§3) Seeds of mono- and dicotyledonous harmful plants are placed in sandy loam in cardboard pots and covered with soil. The compounds according to the invention, which are formulated in the form of wettable powders or emulsion concentrates, are then applied to the surface of the soil cover as aqueous suspension or emulsion at a dosage rate stated in table B1 with an application rate of 600 to 800 l of water per ha (converted). After the treatment, the pots are placed into a greenhouse and kept under good growth conditions for the harmful plants. The damage to the plants or their emergence is scored visually after the test plants have emerged after an experimental time of 3 to 4 weeks by comparison with untreated controls.

Sinapis arvensis [5] = assay: pre-emergence herbicidal action; settings: 320 g a.i./ha, scored visually after 3 to 4 weeks vs untreated controls
Source text: as §3

Stellaria media [6] = assay: pre-emergence herbicidal action; settings: 320 g a.i./ha, scored visually after 3 to 4 weeks vs untreated controls
Source text: as §3

Oryza sativa = assay: post-emergence action, crop plant damage

SMILES | Action against harmful plants AMARE (Amaranthus retroflexus [1]) | Action against harmful plants SINAL (Sinapis arvensis [2]) | Action against harmful plants STEME (Stellaria media [3]) | Action against harmful plants CYPSE (Cyperus serotinus; 50 g a.i./ha) | Action against harmful plants MOOVA (Monochoria vaginalis; 50 g a.i./ha) | Action against harmful plants SAGPY (Sagittaria pygmaea; 50 g a.i./ha) | Action against harmful plants AMARE (Amaranthus retroflexus [4]) | Action against harmful plants SINAL (Sinapis arvensis [5]) | Action against harmful plants STEME (Stellaria media [6]) | Crop plant damage ORYSP (Oryza sativa; 50 g a.i./ha) | Action against harmful plants CYPSE (Cyperus serotinus; 90 g a.i./ha) | Action against harmful plants MOOVA (Monochoria vaginalis; 90 g a.i./ha) | Action against harmful plants SAGPY (Sagittaria pygmaea; 90 g a.i./ha) | Crop plant damage ORYSP (Oryza sativa; 90 g a.i./ha)
CCN(CC)C(=O)COc1c(Br)ccc(C(=O)C2=C(O)CCCC2=O)c1Br [Compound 3.65] | 80% | 90% | 100% | 99% | 99% | 80% | 90% | 80% | 90% | 0% |  |  |  | 
CCN(CC)C(=O)COc1c(Cl)ccc(C(=O)C2=C(O)CCCC2=O)c1Cl [Compound 3.9] | 80% | 90% | 100% |  |  |  | 90% | 80% | 90% |  | 95% | 95% | 90% | 0%
CN(C(=O)COc1c(S(C)(=O)=O)ccc(C(=O)C2=C(O)CCCC2=O)c1Cl)c1ccccc1 [Compound 1.28] |  |  |  |  |  |  | 90% | 90% | 90% |  |  |  |  | 

— patent publication US6774086B2, “3-Aminocarbonyl-substituted benzoylcyclohexanediones” (Bayer CropScience GmbH, priority 2001, dated 2004)
